Measurements from US20210236577A1, “LIVESTOCK FEED ADDITIVE” (DELACON BIOTECHNIK GMBH, priority 2018, published 2021).
Like-named read-outs stand apart in the source and are kept apart here.

Tests used:
heat shock protein HSP70 = assay type: cell-based, Human
Source text: ID NO:1); β-actin reverse: [NT] NO:2); HSP70 forward: [NT] ID NO:3); HSP70 reverse: [NT] ID NO:4).

[1] = test system: broilers exposed to heat stress; test: Trial IV: growth performance of broilers under heat stress, naringin dose levels vs betaine; assay type: in vivo, Ross 308 male broilers; conditions: for effect on body weight and daily body weight gain vs negative control: pre-heat stress period d 0 to 21
Source text: 1152 one-day old Ross 308 male broilers from a total of 1400 were used in the experiment. Any day-old broilers, showing signs of health problems, injury, or of being too small or in poor condition were excluded in the selection process. Broilers were sexed at the hatchery. All day-old chicks were individually weighted and grouped according to weight. The birds were then assigned to the 36 pens (6 repetitions of 6 treatments), and each pen initially consisted of 34 broilers. On day 4 of the experiment in each pen, the weakest 2 broilers were removed and all pens were equated to 32 birds per pen by negative selection. Birds of the negative control group were fed the basal diet without any further phytogenic additive. The reference group was fed a diet providing 500 mg/kg feed betaine from a natural betaine source (Actibeet®, Agrana). To the diets of groups 3, 4, 5 and 6 the phytogenic premixes with compound “B” were added to achieve final dietary Naringin concentrations of 12/18/24/30 mg/kg of feed.
The trial was carried out at the Delacon Research Facility (Stošíkovice na Louce, Czech Republic). Birds were kept in floor pens, each having an area of 2.1 m^2 (1,65×1,275 m; 2.03 m^2 of usable area=not counting the space occupied with the feeder), with fresh wood shavings as bedding material. Stocking density at the end of the trial was 14,78 chicks/m^2 (38.7 kg/m^2). The building was supplied with artificial, programmable lights, automated central heating and forced ventilation. Temperature was set according to the breeders' recommendations from day 1 to day 21 of age. The onset of heat stress was on day 22 of age. Thereby a cyclic heat stress regime was applied. The heat stress period was from 09:00 in the morning until 17:00 in the afternoon. The average house temperature in this period was 34° C. The “cooling night period” was from 19:00 in the evening until 07:00 in the morning. The average room temperature in this period was 26° C. The time intervals from 07:00 to 09:00 in the morning and from 17:00 to 19:00 in the evening was used to gradually increase or decrease the temperature to 34° C. and 26° C., respectively. In order to increase the humidity of the chicken house under the heat stress regime, towels on the heat panels were moistened 5 times per hour during the heat stress period. Relative humidity was maintained at about 70-80%.
Birds were fed a basal diet, based on wheat, corn, and soybean meal. For each feeding period (starter/grower, grower/finisher) feed was calculated to be iso-nutritive (Table 6). Dietary nutrient concentrations were calculated to fulfill the current recommendations of the broilers according to the breeders' recommendations. According to the applied 2-phase-feeding, a starter/grower diet was offered from days 1 to 21 and a grower/finisher diet from days 22 to 42. The composition of the diets, used in trials IV, V, VI, for the single phases and the calculated nutrient contents are given in Table. All diets were offered to the birds as pelleted feed.
The statistical analyses were performed with the software package SAS. After checking the homogeneity of the data, means were compared by the usual test procedures (Tukey test). Statistical significance was declared at P 0.05, with 0.05<P 0.10 considered as a near-significant trend.

[2] = test system: broilers exposed to heat stress; test: Trial V: growth performance of broilers under heat stress, combinations of naringin with different 1,8-cineole concentrations; assay type: in vivo, Ross 308 male broilers
Protocol: In the dose response trial for compound “B” (Trial IV) beneficial effects on the performance of the broilers under heat stress could be observed. […] Consequently in this trial the additional value of adding 1,8-Cineole (compound “A”) in a dose-dependent manner (6/12/24 mg/kg feed) to compound “B” at constantly 12 mg Naringin/kg diet was evaluated. The addition of 500 mg/kg betaine alone or 500 mg betaine+12 mg 1,8-Cineole/kg served as reference groups.
1224 one-day old Ross 308 male broilers from a total of 1400 were used in the experiment. Any day-old broilers, showing signs of health problems, injury, or of being too small or in poor condition were excluded in the selection process. Broilers were sexed at the hatchery. All day-old chicks were individually weighted and grouped according to weight. The birds were then assigned to the 36 pens (6 repetitions of 6 treatments), and each pen initially consisted of 34 broilers. On day 4 of the experiment in each pen, the weakest 2 broilers were removed and all pens were equated to 32 birds per pen by negative selection.
Birds of the negative control group were fed the basal diet without any further phytogenic additive. […]

How did the “increase in HSP 70 induction compared to control cells” value (heat shock protein HSP70; CaCo2, 41° C. 1 hour, 7.5 mg 1,8 Cineole/L) turn out when `CC12CCC(CC1)C(C)(C)O2` [A, 1,8 Cineole] was run?
The value was 15%.

What about the “increase of HSP 70 gene expression” value (heat shock protein HSP70; CaCo2, 41° C. 1 hour, 15 mg 1,8-Cineole/L) of the same compound?
Its value is 22%.

And the “increase of HSP 70 gene expression” value (heat shock protein HSP70; CaCo2, 41° C. 1 hour, 30 mg 1,8-Cineole/L)?
The value was 24%.

And the “increase of HSP 70 expression” value (heat shock protein HSP70; CaCo2, 41° C. 1 hour, highest dose tested, 45 mg 1,8-Cineole/L)?
Its value is 44%.

What about the “increase of HSP 70 expression / induction, single substances alone vs combination (FIG. 3 E)” value (heat shock protein HSP70; CaCo2 under heat stress, at the tested levels (not given)) of the same compound?
Its value is 20.8%.

For `C[N+](C)(C)CC(=O)[O-]` [betaine, N,N,N-Trimethylammonioacetate, reference compound], which “heat shock protein 70 induction compared to untreated control cells” value (heat shock protein HSP70; CaCo2, 41° C. 1 hour, 100, 250 and 1000 mg/L betaine) is on record?
The value was −7 to −19%.

What about the “heat shock protein 70 response compared to untreated control cells” value (heat shock protein HSP70; CaCo2, 41° C. 1 hour, 500 and 2000 mg/L betaine, non-significant) of the same compound?
Its value is “+10 to +12%”.

What about the “body weight at day 42 compared with untreated control” value ([1]; heat stress d22 to 42, betaine 500 mg/kg) of the same compound?
The value was “+170 g”.

What about the “effect on body weight and daily body weight gain vs negative control” value (“effect … vs negative control” below) ([1]; betaine 500 mg/kg) of the same compound?
The value was “+4.9%”.

And the “increase of daily weight gain compared to the negative control” value ([2]; pre-heat stress period, betaine 500 mg/kg alone or plus 12 mg/kg compound A)?
The value was 2.5%.

And the “growth promoting effect / increase of growth performance compared to the negative control” value ([2]; under heat stress conditions d22 to 42, betaine 500 mg/kg, all tested combinations AB)?
The value was “+2.0%”.

With `C[C@@H]1O[C@@H](O[C@H]2[C@H](Oc3cc(O)c4c(c3)O[C@H](c3ccc(O)cc3)CC4=O)O[C@H](CO)[C@@H](O)[C@@H]2O)[C@H](O)[C@H](O)[C@H]1O` [B, Naringin] as the compound, how does the “HSP 70 induction compared to untreated control cells” value (heat shock protein HSP70; CaCo2, 41° C. 1 hour, 60 mg Naringin/L, adverse effect) read?
Its value is −23%.

And the “increase in HSP 70 induction compared to untreated control cells” value (heat shock protein HSP70; CaCo2, 41° C. 1 hour, Naringin 12 to 30 mg/L, significant)?
Its value is “+24 to +27%”.

And the “increase of HSP 70 induction compared to untreated control cells” value (heat shock protein HSP70; CaCo2, 41° C. 1 hour, lowest Naringin concentration tested (6 mg/L), not significant)?
Its value is “+16%”.

And the “performance values (body weight/weight gain/FCR) vs betaine reference group” value ([1]; broilers under heat stress, 12 mg/kg Naringin complete diet vs 500 mg/kg betaine)?
The value was “slightly better than in the betaine reference group”.

And the “body weight at day 42 compared with untreated control” value ([1]; heat stress d22 to 42, compound B groups 12-30 mg/kg)?
The value was “+80 to +140 g”.

What about the “final body weight compared to the negative control” value ([1]; heat stress d22 to 42, lowest compound B dose (12 mg/kg)) of the same compound?
Its value is “+140 g”.

And the “effect … vs negative control” value ([1]; all doses 12, 18, 24 and 30 mg/kg diet)?
The value was “+2.79 to +13%”.

And the “effect … vs negative control” value ([1]; lowest dose 12 mg/kg, significant)?
Its value is “+13%”.

With Betalain [C] as the compound, how does the “HSP 70 induction in CaCo2 cells over the control (in words)” value (heat shock protein HSP70; Caco-2) read?
The value was “improve HSP 70 induction”.
